Results reported in patent US20150224094A1, “ADMINISTRATION OF ACETYLCHOLINESTERASE INHIBITORS TO MITIGATE NEUROTOXIN-INDUCED PARALYSIS AND RESIDUAL NEUROMUSCULAR BLOCKADE” (priority 2012, published 2015).
“And” between values parts separate entries of the source, which are not always exact repeats. Equal entries are not always repeated. “Also recorded” adds a separate entry of the source.

Key:
[1] = Intra-nasal administration of glycopyrrolate and neostigmine, tolerability in a healthy volunteer
Method: In this experiment, the effect of intra-nasal administration of an mAChR inhibitor (glycopyrrolate) was determined using a healthy volunteer. 5 cc of glycopyrrolate (0.2 mg/mL) in sterile water was instilled in one nostril using an LMA sponge atomizer. […] 5 cc of 0.2 mg/mL glycopyrrolate mixed in DMSO was instilled in the other nostril.

[2] = system: mivacurium-induced neuromuscular blockade; assay: Reversal of experimental mivacurium paralysis in a human by intranasal neostigmine aerosol
Method: Intravenous mivacurium is administered to a subject at concentrations of 5-200 mcg/kg/min to induce a safe, stable, low level neuromuscular block for a medical procedure. After completion of the procedure a total of 4 to 30 mg of neostigmine in divided doses—each dose separated by 15 minutes ([…] a 5% or a 6% solution) is administered intra-nasally and the regression of the block is followed quantitatively using acceleromyography or clinical measures such as the improvement in muscle strength as measured by thumb adduction, handgrip strength, teeth clenching, head raising and/or swallowing.
Neuromuscular block was quantified by using the train-of-four (TOF) ratio at the left adductor pollicis (AP) muscle measured by acceleromyography and as described previously. When the subject had significant oropharyngeal weakness and met electrophysiological criteria for Level 3 block a single dose of […] IV glycopyrrolate was administered to prevent bradycardia. Five minutes later 6% neostigmine dissolved in sterile water was administered using a primed atomizer (LMA MAD Nasal Device, LMA Corporation North America, San Diego, Calif.). A total dose of 27.6 mg, 0.37 mg/kg with half the volume insufflated in each nostril was given and the subject was left undisturbed for a total period of 10 min (Shaded area, FIG. 2) except for acceleromyographic recording. After the final set of measurements, the mivacurium infusion was terminated and neuromuscular function was allowed to return spontaneously. Emergency equipment and drugs including IV neostigmine and edrophonium (for reversal of mivacurium block) and glycopyrrolate and atropine (for early treatment of neostigmine toxicity) were at the bedside at all times.
Clinical measures of muscle function emphasized those that would be seen in the setting of neurotoxic envenomation that could be readily measured in out-of-hospital settings. The clinical assessments of muscle function were as follows: visual acuity, ease of swallowing, ability to protrude the tongue, diction, and ability to raise the head completely off the bed for more than 5 sec (neck flexion) with a postal scale (WeighMax, Industrial City, Calif., USA) placed under the subjects head to confirm complete elevation and peak respiratory flow measured using a Tru-Zone Peak Flow Meter (Monaghan, Plattsburg, N.Y.). […] The subject was blinded to all clinical and acceleromyographic data as well as to the mivacurium infusion rate and the levels of neuromuscular blockade.
The mivacurium infusion was maintained with unchanged infusion rate, enabling the investigators to determine the characteristics of neostigmine effect. Analysis of TOF ratios were made using TOFMON software (Schering-Plough Corporation, Kenilworth, N.J.) and considered stable if the values obtained 10 min apart differed less than 5% and accounting for repeated measures. Student's t-test results were calculated and reported as average values, standard deviation (SD), and 95% confidence intervals (95% CI).

[3] = system: Naja naja (Indian cobra) venom; assay: Intranasal neostigmine in experimental Naja naja envenomation in mice; type: in vivo
Method: After pilot studies to assess the potency of reconstituted N. naja venom, 20 mice (21-28 g) were pseudo-randomized to receive IP injections of N. naja venom (approximately 2.5×LD50 for mice, Total N=20).
After 10 minutes, 15 animals received 5 microliters of 0.5 mg/mL neostigmine by nasal administration. Animals were observed continuously for 12 hours and assessed for signs of toxicity including respiratory distress, loss of spontaneous locomotor activity with the endpoint being death. Surviving animals were euthanized after 12 hours. Comparison of time to euthanasia across groups was performed and represented in Kaplan-Meier curves
Swiss albino mice were envenomed with cobra toxin (Naja naja) by intraperitoneal injection at doses >2.5×the LD50 and that killed 100% of untreated mice “LD100”. Intranasal neostigmine was given 10 minutes after envenomation to determine if this intervention could delay or treat the envenomation. 10/15 mice recovered completely and were still behaving normally >12 hours after envenoming. 5/15 mice in the treatment group died compared to 5/5 (100%) of the envenomation group. Mice were treated only once, with no attempt to re-treat with intranasal neostigmine.

[4] = system: krait bite (Bungarus sp.); assay: Case report: intranasal neostigmine aerosol for residual weakness after suspected krait bite; type: in vivo, human; conditions: single dose 0.5 cc aqueous 5% neostigmine intranasal aerosol
Text: A healthy person was sleeping on a mud platform in their village and was awakened by a snake biting their left forearm. Within minutes, they developed headache and throat discomfort. They were transported by their family from the local clinic to the Emergency Department, conscious, but with progressive weakness. On physical examination, they had complete loss of gag reflex and rapidly worsening shortness of breath. There was no fang mark, ecchymosis or local swelling, and there were no other signs of coagulopathy such as bleeding gums or hematuria. They were unable to open their eyes and became unresponsive as emergent intubation was being performed without sedation. Polyvalent anti-snake venom (ASV) was administered concurrently. Based on the pattern of symptoms, lack of coagulopathy, normal renal function and normal bleeding and clotting times as well as lack of physical evidence of snakebite, krait bite (Bungarus sp.) was suspected. Twenty-four hours after ASV therapy and continuous mechanical ventilation, they were awake and alert, but with residual weakness, including profound ptosis, bilateral 6th nerve palsies and inability to lift their neck. […] Intranasal neostigmine was administered every four hours thereafter with IV atropine as prophylaxis against cholinergic toxicity. […]

myasthenic patients = conditions: cited from earlier work
[5] = 3 cc of 1 mg/mL neostigmine into one nostril, after 2nd dose of glycopyrrolate
[6] = intranasal neostigmine, constant mivacurium infusion

C[N+]1(C)CCC(OC(=O)C(O)(c2ccccc2)C2CCCC2)C1 (stereo not shown) [glycopyrrolate]
effect on heart rate ([1]; 5 cc glycopyrrolate 0.2 mg/mL in sterile water, one nostril, LMA sponge atomizer): no effect | effect on heart rate ([1]; 5 cc of 0.2 mg/mL glycopyrrolate mixed in DMSO, other nostril): no notable effect | effect on nasal membranes ([1]; intranasal glycopyrrolate, noted prior to neostigmine): mild drying | reversal of neostigmine-associated bradycardia ([2]; IV glycopyrrolate): easily reversed

CN(C)C(=O)Oc1cccc([N+](C)(C)C)c1 [neostigmine]
effect on heart rate [1, 5]: no effect | salivation [1, 5]: no increase | local tolerability of intranasal spray ([2]; 6% neostigmine by atomizer): no stinging sensation or irritation | Normalized TOF ratios (mean ± SD), adductor pollicis ([2]; after intranasal 6% neostigmine 27.6 mg (0.37 mg/kg), constant mivacurium infusion 2.5 mcg/kg/min, pre-neostigmine 0.56): 0.64±0.03 | Peak flow of baseline by the termination of the mivacurium infusion ([2]; after intranasal neostigmine, 135 min): 95% | peak improvement adductor pollicis TOF ratio ([2]; after intranasal neostigmine, constant mivacurium infusion): 0.70 | time to feeling of facial and lingual muscles rearranging and tightening ([2]; after receiving intranasal neostigmine): ≤ 5 min | time to full recovery of neck flexion ([2]; first test of neck flexion following neostigmine administration): 5 min | clinically important muscular deficits / neuromuscular blockade [2, 6]: quickly relieved all clinically important muscular deficits; also recorded: antagonized the neuromuscular blockade | time to full recovery of ability to swallow after neostigmine administration [2, 6]: ≤ 10 min | bradycardia and concurrent symptoms ([2]; just prior to stopping the mivacurium infusion and after): asymptomatic bradycardia | Peak Flow, average after neostigmine, of baseline ([2]; response to intranasal neostigmine, 72% under stable blockade): 91% | Visual Acuity ([2]; response to intranasal neostigmine, >20/200 under stable blockade): Steady improvement and 20/20 | Ease of Swallowing ([2]; response to intranasal neostigmine, Difficult under stable blockade): Easy | Tongue Protrusion ([2]; response to intranasal neostigmine, Moderately Difficult under stable blockade): Easy | Diction ([2]; response to intranasal neostigmine, Poor under stable blockade): Improved | Jaw Ptosis ([2]; response to intranasal neostigmine, Present under stable blockade): None | Neck Flexion (Head Raise >5 s) ([2]; response to intranasal neostigmine, Unable under stable blockade): Easy | signs or symptoms of muscarinic-mediated toxicity ([2]; while the mivacurium infusion was running): no signs or symptoms | mice whose lives were prolonged or saved ([3]; 5 uL of 0.5 mg/mL IN neostigmine, 2.5× the 100% lethal dose (LD100) of Naja naja venom): 5/5 | effect on survival time ([3]; 5 uL of 0.5 mg/mL IN neostigmine, of Naja naja): trended toward prolonging the lives | time to death or euthanasia ([3]; IN neostigmine N=15, controls 193 minutes): 553 min | condition of surviving animals ([3]; IN neostigmine after N. naja venom): completely normal by 6 hours | mice that died in the treatment group ([3]; IN neostigmine, 5/5 died in envenomation group): 5/15 | animals surviving / recovered of treated ([3]; single dose 5 uL of 0.5 mg/mL IN neostigmine 10 min after IP N. naja venom (approx. 2.5×LD50, 100% lethal in controls), 12 h observation): 10 of 15 and 10/15 | survival ([3]; single dose IN neostigmine 10 min after IP N. naja venom, N=15): 67% | 6th nerve palsies [4]: almost complete recovery | time to complete resolution of ptosis ([4]; 24 h after ASV): ≤ 30 min | clinical effect in myasthenic patients (myasthenic patients; 6% neostigmine methylsulfate intranasal, doses spaced by 15 minutes, alternating nostrils): salutary effects usually after the first dose | puffs tolerated without ill effect (myasthenic patients; intranasal neostigmine at 15 minute intervals): up to 5 puffs
